Holding throughout (format): cell-based
In test [1] the target is T1, α-Gal A mutant form A257V (Homo sapiens, UniProt P06280, A257V).
T1 construct: expressed in transfected cells; host or cells: HEK-293
T1 sequence (P06280 32-429 A257V): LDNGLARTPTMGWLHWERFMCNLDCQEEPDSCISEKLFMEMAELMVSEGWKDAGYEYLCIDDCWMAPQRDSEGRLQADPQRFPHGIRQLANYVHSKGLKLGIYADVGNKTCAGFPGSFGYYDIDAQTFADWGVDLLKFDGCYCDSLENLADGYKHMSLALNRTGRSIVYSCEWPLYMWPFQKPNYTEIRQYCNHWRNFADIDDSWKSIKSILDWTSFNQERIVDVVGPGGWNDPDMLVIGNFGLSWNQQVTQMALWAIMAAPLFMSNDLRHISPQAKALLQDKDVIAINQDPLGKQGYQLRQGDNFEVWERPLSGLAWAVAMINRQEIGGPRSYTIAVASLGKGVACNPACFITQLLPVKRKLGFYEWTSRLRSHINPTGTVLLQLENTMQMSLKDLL
Kind of test: α-Gal A activity in lysates of transfected HEK-293 cells, A257V. As to the method: (§1) Baseline and 10 μM migalastat α-Gal A activity: Differences in the α-Gal A activity between lysates incubated in the absence and presence of 10 μM migalastat were determined using a one-tailed, Mann Whitney U test; an increase at 10 μM migalastat with a p<0.05 was considered significant.
(§2) 10 μM migalastat α-Gal A activity (% WT)=(α-Gal A activity in mutant transfected cell lysates incubated with 10 μM migalastat÷α-Gal A activity in wild-type transfected cell lysates without migalastat)*100.
(§3) Absolute increase (% WT)=is the 10 μM migalastat α-Gal A activity (% WT) minus the baseline α-Gal A activity (% WT).
(§4) Relative increase is the 10 μM migalastat α-Gal A activity in mutant transfected cell lysates÷baseline α-Gal A activity in mutant transfected cell lysates incubated without migalastat.

Test [2] addresses T2, α-Gal A mutant form D155E (Homo sapiens, UniProt P06280, D155E).
T2 construct: expressed in transfected cells; host or cells: HEK-293
T2 sequence (P06280 32-429 D155E): T1 sequence (P06280 32-429 A257V) with D124E, V226A
Kind of test: α-Gal A activity in lysates of transfected HEK-293 cells, D155E. As to the method: as §1, §2, §3, §4

The target in test [3] is T3, α-Gal A mutant form Y216S (Homo sapiens, UniProt P06280, Y216S).
T3 construct: expressed in transfected cells; host or cells: HEK-293
T3 sequence (P06280 32-429 Y216S): T1 sequence (P06280 32-429 A257V) with Y185S, V226A
Kind of test: α-Gal A activity in lysates of transfected HEK-293 cells, Y216S. As to the method:
as §1, §2, §3, §4

The target in another test is T4, α-Gal A mutant form V22G (Homo sapiens, UniProt P06280).
T4 construct: expressed in transfected cells; host or cells: HEK-293
T4 sequence (P06280 32-429): T1 sequence (P06280 32-429 A257V) with V226A
Kind of test: α-Gal A activity in lysates of transfected HEK-293 cells, V22G. Here is the method: as §1, §2, §3, §4

In test [4] the target is T5, α-Gal A mutant form W204L (Homo sapiens, UniProt P06280, W204L).
T5 construct: expressed in transfected cells; host or cells: HEK-293
T5 sequence (P06280 32-429 W204L): T1 sequence (P06280 32-429 A257V) with W173L, V226A
As to the kind of experiment: α-Gal A activity in lysates of transfected HEK-293 cells, W204L. Here is the method: as §1, §2, §3, §4

Where [5] appears, read: 10 μM migalastat minus baseline.
The mark [6] stands for this setting: 10 μM migalastat ÷ baseline activity.
The mark [7] stands for this setting: HEK-293 lysates, 10 μM migalastat, 5 days, mean ± SEM.

Molecules are shown by their SMILES. Numbering of substitutions follows the chain as printed.

With `OC[C@H]1NC[C@H](O)[C@@H](O)[C@H]1O` [migalastat, (2R,3S,4R,5S)-2-(hydroxymethyl) piperdine-3,4,5-triol], the “Absolute increase (% WT)” value is reported as 44.4 % WT in test [1] (setting [5]); 14.5 % WT in test [2] (setting [5]); 32.7 % WT in test [3] (setting [5]); 9.0 % WT on α-Gal A mutant form V22G (setting [5]); 47.4 % WT in test [4] (setting [5]). The Relative increase in test [1] (setting [6]) stood at 1.85; in test [2] (setting [6]), 3.81; in test [3] (setting [6]), 17.70; on α-Gal A mutant form V22G (setting [6]) it was 1.53; in test [4] (setting [6]) it was 2.02. Besides, the “10 μM migalastat α-Gal A activity” value in test [1] (setting [7]) turned out to be 30313 ± 1981 nmol/mg/h; in test [2] (setting [7]) it was 6619 ± 337 nmol/mg/h; on α-Gal A mutant form V22G (setting [7]), 7150 ± 700 nmol/mg/h; in test [4] (setting [7]) it was 32649 ± 3037 nmol/mg/h. Also, the “10 μM migalastat α-Gal A activity (% WT)” value in test [1] (setting [7]) stood at 99.9 ± 4.6 % WT; in test [2] (setting [7]), 19.8 ± 1.0 % WT; in test [3] (setting [7]), 34.7 ± 1.8 % WT; at α-Gal A mutant form V22G (setting [7]), 24.6 ± 2.8 % WT; in test [4] (setting [7]), 84.3 ± 5.9 % WT. Further, the “10 nM migalastat α-Gal A activity” value in test [3] (HEK-293 lysates, 10 nM migalastat as printed, 5 days, mean ± SEM) was found to be 11238 ± 751 nmol/mg/h.

Source of the values: patent US12594268B2, “Methods of treating Fabry disease in patients having a mutation in the GLA gene” (Amicus Therapeutics, Inc., priority 2018, dated 2026).
